Assay results reported in ChEMBL document CHEMBL1687704, “Benzimidazole-2-pyrazole HIF Prolyl 4-Hydroxylase Inhibitors as Oral Erythropoietin Secretagogues” (ACS Med Chem Lett, 2010).

What was measured:
[1] = Plasma concentration in Balb-C mouse at 100 umol/kg, po after 1 hr; type: ADME, organism-based
[2] = Plasma concentration in Balb-C mouse at 100 umol/kg, po after 6 hrs; type: ADME, organism-based

concentration at 1 h [1]: 14 µM | concentration at 6 h [2]: 100 nM
SMILES: O=C(O)c1cnn(-c2nc3cc(C(F)(F)F)c(F)cc3[nH]2)c1
